Assays:
[1] = molecular target: T1, human CD38 (Homo sapiens, UniProt P28907); experiment: human recombinant CD38 enzyme assay (hydrolysis of NAD+); assay type: biochemical; conditions: human recombinant CD38, 0.4 nM enzyme, 62.5 μM NAD+; read-out: hCD38 BioChem IC50
T1 sequence (P28907 1-300): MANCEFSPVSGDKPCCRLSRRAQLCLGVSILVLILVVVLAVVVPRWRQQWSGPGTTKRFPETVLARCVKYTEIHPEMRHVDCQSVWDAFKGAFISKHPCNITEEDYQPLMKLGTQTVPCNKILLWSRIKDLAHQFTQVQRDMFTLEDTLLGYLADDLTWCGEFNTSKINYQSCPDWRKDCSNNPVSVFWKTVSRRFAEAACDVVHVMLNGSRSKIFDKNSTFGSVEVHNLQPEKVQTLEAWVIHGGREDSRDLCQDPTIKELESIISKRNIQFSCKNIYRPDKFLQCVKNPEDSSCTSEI
Procedure, shortened: (§1)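 Inhibitors were titrated against purified CD38 hydrolysing NAD+ for 60 min at ambient temperature. Unconsumed substrate was quantified enzymatically via NADH-coupled resazurin reduction and fluorescence.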

[2] = molecular target: T2, endogenous CD38 in HL60 cells (Homo sapiens, UniProt P28907); experiment: cellular CD38 assay in HL60 cells (cellular NAD levels); assay type: cell-based; conditions: all-trans retinoic acid, 24 hours, read-out: hCD38 HL60 ATRA NAD Cell Diaphorase IC50
T2 construct: endogenous in cells; host or cells: HL60 (leukemic cells, treated with all-trans retinoic acid)
T2 sequence (P28907 1-300): T1 sequence (P28907 1-300)
Procedure, shortened: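 HL60 cells (20000/well) were treated with compound in DMSO for 24 h. Cellular NAD was then measured by an enzymatic cycling mix (alcohol dehydrogenase, diaphorase, 40 uM resazurin, 10 uM FMN, 3% ethanol, Triton X-100, pH 8.4).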

[3] = molecular target: T3, mouse CD38 (Mus musculus, UniProt P56528); experiment: mouse recombinant CD38 enzyme assay (hydrolysis of NAD+); assay type: biochemical; conditions: read-out: mCD38 BioChem IC50
T3 sequence (P56528 1-304): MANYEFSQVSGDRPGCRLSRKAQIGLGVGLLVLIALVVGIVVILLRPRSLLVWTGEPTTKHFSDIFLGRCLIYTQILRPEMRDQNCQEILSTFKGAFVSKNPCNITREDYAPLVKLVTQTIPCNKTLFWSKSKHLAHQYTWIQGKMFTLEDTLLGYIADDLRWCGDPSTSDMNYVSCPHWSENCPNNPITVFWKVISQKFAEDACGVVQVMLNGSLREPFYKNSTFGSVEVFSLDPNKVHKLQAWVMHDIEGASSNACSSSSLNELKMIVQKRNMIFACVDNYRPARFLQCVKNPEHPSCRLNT
Procedure, shortened: as §1

Row | SMILES | IC50 [1] [µM] | IC50 [2] [µM] | IC50 [3] [µM]
1 | O=C(Nc1ccc(C(F)(F)F)nc1)c1ccnc(-c2cncs2)n1 [Compound 86, 2-(thiazol-5-yl)-N-(6-(trifluoromethyl)pyridin-3-yl)pyrimidine-4-carboxamide] | 0.194 | 8.81 | 0.219
2 | O=C(Nc1ccc(C(F)F)nc1)c1ccnc(-c2cncs2)n1 [Compound 114, N-(6-(difluoromethyl)pyridin-3-yl)-2-(thiazol-5-yl)pyrimidine-4-carboxamide] | 0.173 | 4.33 | 0.15
3 | C[C@H]1CC[C@H](NC(=O)c2nccc(-n3ccnc3)n2)CC1 [Compound 146, 4-(1H-imidazol-1-yl)-N-((1r,4r)-4-methylcyclohexyl)pyrimidine-2-carboxamide] | 0.062 | 1.7 | 0.023
4 | Cc1cccc(NC(=O)c2cccc(-n3ccnc3)n2)n1 [Compound 33, 6-(1H-imidazol-1-yl)-N-(6-methylpyridin-2-yl)picolinamide] | 0.313 | 13.7 | 0.228
5 | CO[C@H]1CC[C@H](NC(=O)c2nc(-c3cncn3C)cc(C3CC3)n2)CC1 [Compound 203, 4-cyclopropyl-N-((1r,4r)-4-methoxycyclohexyl)-6-(1-methyl-1H-imidazol-5-yl)pyrimidine-2-carboxamide] | 0.161 | 7.87 | 0.0121
6 | O=C(NC1CC2(C1)CC(F)(F)C2)c1cncc(-n2ccnc2)n1 [Compound 103, N-(6,6-difluorospiro[3.3]heptan-2-yl)-6-(1H-imidazol-1-yl)pyrazine-2-carboxamide] | 0.146 | 1.62 | 0.03
7 | O=C(N[C@H]1CC[C@H](OC(F)F)CC1)c1nccc(-n2ccnc2)n1 [Compound 293, N-((1r,4r)-4-(difluoromethoxy)cyclohexyl)-4-(1H-imidazol-1-yl)pyrimidine-2-carboxamide] | 0.0585 | 2.83 | 0.0362
8 | CO[C@H]1CC[C@H](NC(=O)c2cc(C(F)(F)F)nc(-n3ccnc3)n2)CC1 [Compound 111, 2-(1H-imidazol-1-yl)-N-((1r,4r)-4-methoxycyclohexyl)-6-(trifluoromethyl)pyrimidine-4-carboxamide] | 0.129 | 5.49 | 0.038
9 | Cn1cncc1-c1ccnc(C(=O)N[C@H]2CCN(c3ccccc3)C2)n1 [Compound 246, (S)-4-(1-methyl-1H-imidazol-5-yl)-N-(1-phenylpyrrolidin-3-yl)pyrimidine-2-carboxamide] | 0.0829 | 8.77 | 0.0618
10 | CCO[C@H]1CC[C@H](NC(=O)c2nccc(-c3cncn3C)n2)CC1 [Compound 255, N-((1r,4r)-4-ethoxycyclohexyl)-4-(1-methyl-1H-imidazol-5-yl)pyrimidine-2-carboxamide] | 0.0715 | 2.76 | 0.0287
11 | COCCO[C@H]1CC[C@H](NC(=O)c2cccc(-n3ccnc3)n2)CC1 [Compound 14, 6-(1H-imidazol-1-yl)-N-(4-(2-methoxyethoxy)cyclohexyl)picolinamide] | 0.091 | 3.29 | 0.017
12 | O=C(Nc1ccccn1)c1cc(-n2ccnc2)ccn1 [Compound 4, 4-(1H-imidazol-1-yl)-N-(pyridin-2-yl)picolinamide] | 1.13 | 8.51 | 0.491

The next molecules have a lower IC50 [1] than those just listed; values first:

Row | IC50 [1] [µM] | IC50 [2] [µM] | IC50 [3] [µM] | SMILES
13 | 0.044 | 4 | 0.011 | C[C@H]1CC[C@H](NC(=O)c2cc(C(F)(F)F)nc(-n3ccnc3)n2)CC1 [Compound 164, 2-(1H-imidazol-1-yl)-N-((1r,4r)-4-methylcyclohexyl)-6-(trifluoromethyl)pyrimidine-4-carboxamide]
14 | 0.004 | 0.28 | 0.006 | O=C(Nc1ccc(C(F)F)nc1)c1cccc(-n2ccnc2)n1 [Compound 95, N-(6-(difluoromethyl)pyridin-3-yl)-6-(1H-imidazol-1-yl)picolinamide]
15 | 0.0353 | 3.28 | 0.0045 | CO[C@H]1CC[C@H](NC(=O)c2nc(C)cc(-c3cncn3C)n2)CC1 [Compound 191, N-((1r,4r)-4-methoxycyclohexyl)-4-methyl-6-(1-methyl-1H-imidazol-5-yl)pyrimidine-2-carboxamide]
16 | 0.0093 | 2.31 | 0.0019 | Cn1cncc1-c1nc(C(=O)NC2CCC(F)(F)CC2)cc(C2CCOCC2)n1 [Compound 200, N-(4,4-difluorocyclohexyl)-2-(1-methyl-1H-imidazol-5-yl)-6-(tetrahydro-2H-pyran-4-yl)pyrimidine-4-carboxamide]
17 | 0.0248 | 3.69 | 0.0072 | CO[C@H]1CC[C@H](NC(=O)c2nc(C)cc(-n3ccnc3)n2)CC1 [Compound 207, 4-(1H-imidazol-1-yl)-N-((1r,4r)-4-methoxycyclohexyl)-6-methylpyrimidine-2-carboxamide]
18 | 0.0045 | 0.709 | 0.001 | Cn1cncc1-c1nc(C(=O)Nc2ccc(C(F)F)nc2)cc(C2CCOCC2)n1 [Compound 197, N-(6-(difluoromethyl)pyridin-3-yl)-2-(1-methyl-1H-imidazol-5-yl)-6-(tetrahydro-2H-pyran-4-yl)pyrimidine-4-carboxamide]
19 | 0.006 | 0.568 | 0.008 | O=C(Nc1ccc(C(F)(F)F)nc1)c1cccc(-n2ccnc2)n1 [Compound 13, 6-(1H-imidazol-1-yl)-N-(6-(trifluoromethyl)pyridin-3-yl)picolinamide]
20 | 0.0016 | 0.303 | 0.0012 | COc1cc(-n2ccnc2)nc(C(=O)Nc2ccc(C(F)F)nc2)n1 [Compound 210, N-(6-(difluoromethyl)pyridin-3-yl)-4-(1H-imidazol-1-yl)-6-methoxypyrimidine-2-carboxamide]
21 | 0.0079 | 2.07 | 0.0107 | Cn1cncc1-c1nc(C(=O)N[C@H]2C[C@](O)(c3ccccc3)C2)cc(C2CCOCC2)n1 [Compound 277, N-((1s,3s)-3-hydroxy-3-phenylcyclobutyl)-2-(1-methyl-1H-imidazol-5-yl)-6-(tetrahydro-2H-pyran-4-yl)pyrimidine-4-carboxamide]
22 | 0.0464 | 1.87 | 0.0272 | O=C(N[C@H]1C[C@H](c2ccccc2F)C1)c1nccc(-n2ccnc2)n1 [Compound 236, N-((1r,3r)-3-(2-fluorophenyl)cyclobutyl)-4-(1H-imidazol-1-yl)pyrimidine-2-carboxamide]
23 | 0.0409 | 2.1 | 0.0153 | Cn1cncc1-c1ccnc(C(=O)N[C@H]2CC[C@H](NCC(F)(F)F)CC2)n1 [Compound 264, 4-(1-methyl-1H-imidazol-5-yl)-N-((1r,4r)-4-((2,2,2-trifluoroethyl)amino)cyclohexyl)pyrimidine-2-carboxamide]
24 | 0.023 | 1.54 | 0.006 | O=C(NC1CCC(F)(F)CC1)c1cccc(-n2ccnc2)n1 [Compound 136, N-(4,4-difluorocyclohexyl)-6-(1H-imidazol-1-yl)picolinamide]
25 | 0.008 | 1.25 | 0.002 | CC(C)c1cc(C(=O)Nc2ccc(C(F)F)nc2)nc(-c2cncn2C)n1 [Compound 173, N-(6-(difluoromethyl)pyridin-3-yl)-6-isopropyl-2-(1-methyl-1H-imidazol-5-yl)pyrimidine-4-carboxamide]
26 | 0.005 | 0.522 | 0.01 | O=C(Nc1ccc(C(F)(F)F)nc1)c1cncc(-n2ccnc2)n1 [Compound 55, 6-(1H-imidazol-1-yl)-N-(6-(trifluoromethyl)pyridin-3-yl)pyrazine-2-carboxamide]
27 | 0.024 | 1.53 | 0.003 | Cc1cc(C(=O)N[C@H]2CC[C@H](C(F)F)CC2)nc(-n2ccnc2)c1 [Compound 97, N-(4-(difluoromethyl)cyclohexyl)-6-(1H-imidazol-1-yl)-4-methylpicolinamide]
28 | 0.016 | 0.629 | 0.007 | Cc1ccc(-n2ccnc2)nc1C(=O)Nc1cccnc1 [Compound 26, 6-(1H-imidazol-1-yl)-3-methyl-N-(pyridin-3-yl)picolinamide]
29 | 0.0081 | 3.73 | 0.0012 | Cn1cncc1-c1nc(C(=O)NC2CC3(COC3)C2)cc(C2CCC(F)(F)CC2)n1 [Compound 286, 6-(4,4-difluorocyclohexyl)-2-(1-methyl-1H-imidazol-5-yl)-N-(2-oxaspiro[3.3]heptan-6-yl)pyrimidine-4-carboxamide]

— patent US20230116972A1, “CD38 MODULATORS AND METHODS OF USE THEREOF” (Cytokinetics, Inc., priority 2021, published 2023)
